This note sets out measurements from publication PMC10706865, “Repurposing Study of 4-Acyl-1-phenylaminocarbonyl-2-substituted-piperazine Derivatives as Potential Anticancer Agents—In Vitro Evaluation against Breast Cancer Cells” (International Journal of Molecular Sciences, 2023).

“And” between values parts separate entries of the source, which are not always exact repeats. Equal values may be shown once. Read-outs that look alike come from different tables or passages of the source.

One experiment concerns MRC-5 normal lung cells. Briefly: MTT cell viability assay, MRC-5 normal lung cells. The format is cell-based, human. To be noted: read-out: IC50 (Mean ± SEM; μM) MRC-5 (Normal). As to the method:
(§1) Benzofurane scaffold, piperazine ring, and urea function are relevant privileged structures present not only in anticancer drugs against breast cancer but also against other types of cancer, such as lung cancer, hepatocarcinoma, and gastric cancer. […] MRC-5 normal lung cells and A549 lung cancer cells were exposed to compounds 31, 32, 35, 37, and cisplatin (a common drug used to treat lung cancer) for 72 h, and cell viability was measured using the MTT assay (Figure 10 and Table 3). Compounds 35 and 37 also had high selectivity for A549 cancer cells.
(§2) Exponentially growing cells were seeded into 96-well plates, and drugs were added 24 h later. Each compound was dissolved with DMSO (Panreac Applichem) to prepare a stock solution (100 mM). The working solutions of specific concentrations were prepared via the dilution of the stock solutions in the culture medium and were immediately used to treat the cells. The remaining stock solutions were aliquoted and frozen at −40 °C. We used different aliquots in each independent experiment to avoid the freeze–thaw cycles. Cells were exposed to the drugs for 72 h. After these 72 h, cell viability was determined with the MTT assay or the resazurin assay. These assays are colorimetric techniques that are widely used to determine cell viability.
(§3) The MTT assay is based on the capability of viable cells to transform the MTT salt into a purple formazan dye. After an incubation period of the cells with the MTT and a solubilization step, the quantity of the colored product is measured with a plate reading spectrophotometer. […] The quantity of formazan produced is presumably proportional to the number of viable cells. After seeding for 24 h, cells were treated with the tested drugs for 72 h. Then, medium was removed, and 125 μL of MTT (1 mg/mL in medium) was added to each well for 3–4 h. Subsequently, 80 μL of 20% sodium dodecyl sulfate (Panreac Applichem) in 20 mM hydrochloric acid (Panreac Applichem) was added to dissolve the insoluble purple formazan product, plates were incubated for 10 h at 37 °C, and optical densities were measured at 540 nm on a multiwell plate spectrophotometer reader.
(§4) In both assays, cell viability was expressed as percentage in relation to controls. All data were averaged from at least two independent experiments and were expressed as mean ± standard error of the mean (SEM). Selectivity indices (SI) were calculated by dividing the IC50 values in the nonmalignant cells by those in the cancer cells.

A further experiment concerns A549 lung cancer cells. Briefly: MTT cell viability assay, A549 lung cancer cells. It is filed as cell-based, human. To be noted: for IC50: 72 h exposure, MTT assay, read-out: IC50 (Mean ± SEM; μM) A549 (Cancer); for Selectivity Index: IC50 MRC-5 divided by IC50 A549, 72 h, MTT. As to the method: as §1, §2, §3, §4
For experiment [1], the system named is MCF 10A human normal breast cells. The experiment can be described thus: MTT cell viability assay, MCF 10A normal breast cells. It is filed as cell-based. Conditions: 72 h exposure, read-out: IC50 (Mean ± SEM; μM) MCF 10A (Normal). As to the method:
(§5) To evaluate the cytotoxicity of our compounds against cancer cells, they were evaluated in vitro against MCF7 human breast cancer cells. To examine the selectivity of our compounds, they were also studied against MCF 10A human normal cells. Both cell lines were exposed to different concentrations of our compounds for 72 h before measuring cell viability with the 3-(4,5-dimethylthiazol-2-yl)-2,5-diphenyltetrazolium bromide (MTT) assay (for conditions of the MTT assay, see the Experimental Part, Section 3). Docetaxel, an anticancer drug used in clinics, was tested under the same experimental conditions. Data were obtained from at least two independent experiments and were expressed as means ± standard error of means (SEM). The half-maximal inhibitory concentration (IC50) value of each compound was calculated, and the results are collected in Table 2. To evaluate the selective activity of our compounds, the selectivity index (SI) was also calculated. The curves of cell viability of MCF7 cancer cells and MCF 10A normal cells after the treatment with our compounds are shown (Figure 5, Figure 6, Figure 7, Figure 8 and Figure 9 and Figures S1–S4).
as §2, §3, §4

For a further experiment, the system named is A549 cells. Briefly: Resazurin cell viability assay, A549 cancer cells. The format is cell-based, human. To be noted: for IC50: Homo sapiens.
From the text: (§6) One key limitation of most anticancer drugs is that they not only target cancer cells but also affect nonmalignant cells with high division rates. This can induce numerous adverse effects, such as severe nausea and vomiting, hair loss, diarrhea, mouth sores, anemia, erythematous eruptions, etc. For example, skin cells, which are constantly renewing themselves, are often damaged by antimetabolites or alkylating agents. This can lead to painful erythematous eruptions. […] These cells are derived from normal adult tissue and have a division rate similar to that of cancer cells. A549 cells and HaCaT cells were exposed to various concentrations of 31, 32, 35, 37, or gemcitabine (a common antimetabolite used to treat cancer) for 72 h. Cell viability was determined with the resazurin assay. Subsequently, the cells were allowed to grow in a drug-free medium for another 72 h. This was performed to test their survival and proliferation ability after the removal of the compounds. Cell viability was again measured with the resazurin assay. […] It should be mentioned that cells exposed to high concentrations of compounds above 100 μM were unable to recover after treatment.
as §2
(§7) The resazurin assay measures the ability of viable cells to transform the blue compound resazurin into the pink compound resorufin. There is a direct correlation between the reduction in resazurin and the number of viable cells. After seeding for 24 h, cells were exposed to several concentrations of compounds. After a 72 h treatment period, the cells were washed once with a phosphate-buffered saline (PBS, biowest), and 150 μL of resazurin (20 μg/mL in the medium) was added to each well. The plates were then incubated for 4–5 h at 37 °C, 5% CO2, and optical densities were measured at 540 nm and 620 nm using a multiwell plate spectrophotometer reader (Imark Bio Rad Laboratories Inc., Hercules, CA, USA). Subsequently, cells were washed once with PBS and allowed to grow for an additional 72 h in drug-free medium to allow them to recuperate from possible damage induced by the tested compounds. After the treatment period, cell viability was measured following the same protocol described above.
as §4
A general note: Alamar Blue is a resazurin reagent that responds to reducing activity.

Experiment [2] relates to MCF7 human breast cancer cells. The experiment can be described thus: MTT cell viability assay, MCF7 breast cancer cells. The format is cell-based. To be noted: for IC50: 72 h exposure, MTT assay, read-out: IC50 (Mean ± SEM; μM) MCF7 (Cancer); for Selectivity Index: IC50 MCF 10A divided by IC50 MCF7, 72 h, MTT. As to the method:
as §5, §2, §3, §4

The test system of a further experiment is HaCaT cells. The experiment can be described thus: Resazurin cell viability assay, HaCaT nonmalignant cells. It is filed as cell-based. To be noted: Homo sapiens; for IC50: 72 h; for CC50: 144 h.
From the text: as §6, §2, §7, §4

Setting [3] is: Homo sapiens, MRC5, 72 h exposure.
Setting [4] is: A549, 72 h, 72 h Treatment, resazurin assay, read-out: IC50 (Mean ± SEM; μM) A549 (Cancer).
[5] abbreviates: A549, 144 h, 72 h Treatment + 72 h Recovery Period, resazurin assay, read-out: IC50 (Mean ± SEM; μM) A549 (Cancer).
Where [6] appears, read: IC50 HaCaT divided by IC50 A549, 72 h Treatment, resazurin.
Setting [7] is: 72 h Treatment, resazurin assay, read-out: IC50 (Mean ± SEM; μM) HaCaT (Nonmalignant).
Where [8] appears, read: 72 h Treatment + 72 h Recovery Period, resazurin assay, read-out: IC50 (Mean ± SEM; μM) HaCaT (Nonmalignant).
[9] abbreviates: IC50 HaCaT divided by IC50 A549, 72 h Treatment + 72 h Recovery Period, resazurin.

The IC50 is the concentration that inhibits the measured activity by half.

With `N.N.[Cl][Pt][Cl]` [Cisplatin, reference compound], the IC50 in the experiment on MRC-5 normal lung cells (72 h exposure) stood at 31.8 ± 5.6 µM; in the experiment on A549 lung cancer cells, 8.2 ± 2.2 µM. For the same compound, the “Selectivity Index” value with A549 lung cancer cells is 6.3 ± 1.8.
For the compound `CC(C)(C)OC(=O)N1CCN(C(=O)Nc2cc(C(F)(F)F)ccc2Cl)C(c2ccccc2)C1` (stereo not drawn) [Compound 31], the IC50 with MRC-5 normal lung cells (setting [3]) was 14.2 ± 0.5 µM; in experiment [1], 298 ± 56.4 µM; in the experiment with A549 lung cancer cells (Homo sapiens, A549), 4.8 ± 0.8 µM; in the experiment on A549 cells (setting [4]) it was 17 ± 1.6 µM; in the experiment on A549 cells (setting [5]) it was 17.8 ± 2 µM; in experiment [2] it was 18.6 ± 4.2 µM. Moreover, the half-maximal inhibitory concentration (IC50) in experiment [2] (Homo sapiens, MCF7, 72 h) was under 20 µM; with HaCaT cells (setting [7]) it was 14.5 ± 3.2 µM. Further, the “Selectivity Index” value in the experiment on A549 lung cancer cells was 2.1 ± 0.3; in the experiment with A549 cells (setting [6]), 0.8 ± 0.2; in experiment [2] it was > 10 and 16.6 ± 1.9. For the same compound, the CC50 in the experiment on HaCaT cells (setting [8]) stood at 30.9 ± 7.5 µM.
As for `CC(C)(C)OC(=O)N1CCN(C(=O)Nc2ccc(Cl)c(C(F)(F)F)c2)C(c2ccccc2)C1` (stereo not drawn) [Compound 32], the IC50 with MRC-5 normal lung cells (setting [3]) is 4.3 ± 0.2 µM; in experiment [1], 34.1 ± 2.2 µM; with A549 lung cancer cells (Homo sapiens, A549), 5.2 ± 0.4 µM; in the experiment with A549 cells (setting [4]), 6.2 ± 0.6 µM; in the experiment on A549 cells (setting [5]) it was 13.6 ± 0.1 µM; in the experiment with HaCaT cells (setting [7]) it was 6.7 ± 0.8 µM. Besides, the “Selectivity Index” value with A549 lung cancer cells stood at 1.0 ± 0.1; in the experiment on A549 cells (setting [9]), 1.1 ± 0.1; in the experiment on A549 cells (setting [6]), 1.1 ± 0.1; in experiment [2], 12.6 ± 2.6. Further, the CC50 in the experiment with HaCaT cells (setting [8]) turned out to be 14.9 ± 1.3 µM.
In the case of `O=C(c1cc2ccccc2o1)N1CCN(C(=O)Nc2ccc([N+](=O)[O-])cc2)C(c2ccccc2)C1` (stereo not drawn) [Compound 35], the IC50 amounted to 165 ± 4.1 µM in the experiment with MRC-5 normal lung cells (setting [3]); 244 ± 24.9 µM in experiment [1]; 25.6 ± 2.9 µM in the experiment with A549 lung cancer cells (Homo sapiens, A549); 28.4 ± 7.3 µM with A549 cells (setting [4]); 69.3 ± 20.2 µM with A549 cells (setting [5]); 23 ± 3.8 µM in experiment [2] (Homo sapiens, MCF7, 72 h). The IC50 with HaCaT cells (setting [7]) stood at 41.6 ± 8.1 µM. Also, the “Selectivity Index” value in the experiment with A549 lung cancer cells is reported as 6.5 ± 2.1; with A549 cells (setting [6]) it was 1.6 ± 0.2; in experiment [2], 11.1 ± 2.9. Moreover, the CC50 with HaCaT cells (setting [8]) was 97.5 ± 16.2 µM.
As for `N#Cc1ccc(NC(=O)N2CCN(C(=O)c3cc4ccccc4o3)CC2c2ccccc2)cc1` (stereo not drawn) [Compound 37], the IC50 came out at 236 ± 5.4 µM with MRC-5 normal lung cells (setting [3]); 484 ± 233 µM in experiment [1]; 18.7 ± 2.7 µM in the experiment with A549 lung cancer cells (Homo sapiens, A549); 22.5 ± 2.7 µM in the experiment with A549 cells (setting [4]); 41.6 ± 8.9 µM in the experiment on A549 cells (setting [5]); 57.1 ± 34.7 µM in experiment [2] (Homo sapiens, MCF7, 72 h). For the same compound, the IC50 in the experiment on HaCaT cells (setting [7]) was 24.8 ± 1.8 µM. For the same compound, the “Selectivity Index” value was 12.8 ± 1.6 with A549 lung cancer cells, 1.1 ± 0.1 in the experiment on A549 cells (setting [6]) and over 10 in experiment [2]. For the same compound, the CC50 with HaCaT cells (setting [8]) amounted to 64.6 ± 6.8 µM.
In the case of `Nc1ccn([C@@H]2O[C@H](CO)[C@@H](O)C2(F)F)c(=O)n1` [Gemcitabine, reference compound], the concentration for half-maximal inhibition (IC50) with A549 cells (A549, 72 h, gemcitabine line in nM, 72 h Treatment + 72 h Recovery Period, resazurin, read-out: IC50 (Mean ± SEM) A549 (Cancer)) was determined as 0.0093 ± 0.007 µM; in the experiment with A549 cells (A549, 72 h, gemcitabine line in nM, 72 h Treatment, resazurin, read-out: IC50 (Mean ± SEM) A549 (Cancer)), 0.0035 ± 0.0008 µM; in the experiment on HaCaT cells (gemcitabine line in nM, 72 h Treatment + 72 h Recovery Period, resazurin, read-out: IC50 (Mean ± SEM) HaCaT (Nonmalignant)), 0.0088 ± 0.0065 µM; with HaCaT cells (gemcitabine line in nM, 72 h Treatment, resazurin, read-out: IC50 (Mean ± SEM) HaCaT (Nonmalignant)), 0.0131 ± 0.0062 µM. Moreover, the “Selectivity Index” value turned out to be 1.0 ± 0.1 in the experiment on A549 cells (setting [9]) and 3.3 ± 1.4 in the experiment on A549 cells (setting [6]).
